Values of other authors in patent publication US20030175883A1, “DNA encoding a mammalian LPA receptor and uses thereof” (priority 1997, published 2003).

Columns and labels:
[1] = system: LPA binding sites in membranes from 3T3 cells; conditions: Thomson et al., 1994
[2] = target: LPA binding sites in membranes from rat brain; conditions: Thomson et al., 1994

## 1-acyl-glycerol-3-phosphate [LPA]
[1]
  Kd: low nanomolar range
[2]
  Kd: low nanomolar range
